Experiment [1] has as its target Sodium-dependent dopamine transporter (Homo sapiens, UniProt Q01959).
In experiment [2] the target is T1, 5-hydroxytryptamine receptor 2B (Homo sapiens, UniProt P41595). It is filed as functional, cell-based.
In experiment [3] the target is Adenosine receptor A2a (Homo sapiens, UniProt P29274).
For experiment [4], the target named is T2, 5-hydroxytryptamine receptor 1A (Homo sapiens, UniProt P08908).
T2 sequence (P08908 whole entry): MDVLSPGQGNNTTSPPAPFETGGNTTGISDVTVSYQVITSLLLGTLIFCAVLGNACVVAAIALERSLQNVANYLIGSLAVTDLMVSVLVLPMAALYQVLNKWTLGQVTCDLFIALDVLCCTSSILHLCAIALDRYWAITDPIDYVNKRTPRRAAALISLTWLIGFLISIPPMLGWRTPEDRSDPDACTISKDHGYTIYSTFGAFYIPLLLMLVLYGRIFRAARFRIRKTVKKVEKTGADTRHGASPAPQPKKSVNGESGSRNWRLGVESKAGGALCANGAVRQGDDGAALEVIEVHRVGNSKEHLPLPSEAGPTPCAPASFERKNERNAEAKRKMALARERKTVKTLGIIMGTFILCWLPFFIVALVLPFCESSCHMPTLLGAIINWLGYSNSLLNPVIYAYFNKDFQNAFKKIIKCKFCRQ

Experiment [5] deals with Melanocortin receptor 3 (Homo sapiens, UniProt P41968).
In experiment [6] the target is Acetylcholinesterase (Homo sapiens, UniProt P22303). It is filed as functional.
The target of experiment [7] is Gamma-aminobutyric acid receptor subunit alpha-1 (Rattus norvegicus, UniProt P62813).
Experiment [8] addresses Mu-type opioid receptor (Homo sapiens, UniProt P35372).
Experiment [9] has as its target T3, Alpha-2A adrenergic receptor (Homo sapiens, UniProt P08913).
T3 sequence (P08913 whole entry): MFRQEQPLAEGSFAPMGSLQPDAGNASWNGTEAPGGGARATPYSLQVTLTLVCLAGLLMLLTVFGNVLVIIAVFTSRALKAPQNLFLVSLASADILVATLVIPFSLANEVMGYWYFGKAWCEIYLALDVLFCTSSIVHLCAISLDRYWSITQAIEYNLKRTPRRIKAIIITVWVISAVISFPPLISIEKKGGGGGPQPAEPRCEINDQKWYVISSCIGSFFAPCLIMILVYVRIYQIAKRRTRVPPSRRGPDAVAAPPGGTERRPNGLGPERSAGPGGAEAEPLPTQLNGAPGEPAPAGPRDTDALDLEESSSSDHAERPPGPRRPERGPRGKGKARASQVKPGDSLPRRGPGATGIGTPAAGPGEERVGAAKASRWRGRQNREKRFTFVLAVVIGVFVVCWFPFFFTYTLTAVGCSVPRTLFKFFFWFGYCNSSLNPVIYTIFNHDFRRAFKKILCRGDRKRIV
Type of experiment: functional, cell-based.

In experiment [10] the target is 3',5'-cyclic-AMP phosphodiesterase 4D (Homo sapiens, UniProt Q08499). It is filed as functional.
The target of experiment [11] is cGMP-inhibited 3',5'-cyclic phosphodiesterase 3A (Homo sapiens, UniProt Q14432). Type of experiment: functional.
The target of experiment [12] is T1, 5-hydroxytryptamine receptor 2B. Type of experiment: functional, cell-based. This is another data set of the same source.
The target of experiment [13] is T4, Alpha-1A adrenergic receptor (Homo sapiens, UniProt P35348).
T4 sequence (P35348 whole entry): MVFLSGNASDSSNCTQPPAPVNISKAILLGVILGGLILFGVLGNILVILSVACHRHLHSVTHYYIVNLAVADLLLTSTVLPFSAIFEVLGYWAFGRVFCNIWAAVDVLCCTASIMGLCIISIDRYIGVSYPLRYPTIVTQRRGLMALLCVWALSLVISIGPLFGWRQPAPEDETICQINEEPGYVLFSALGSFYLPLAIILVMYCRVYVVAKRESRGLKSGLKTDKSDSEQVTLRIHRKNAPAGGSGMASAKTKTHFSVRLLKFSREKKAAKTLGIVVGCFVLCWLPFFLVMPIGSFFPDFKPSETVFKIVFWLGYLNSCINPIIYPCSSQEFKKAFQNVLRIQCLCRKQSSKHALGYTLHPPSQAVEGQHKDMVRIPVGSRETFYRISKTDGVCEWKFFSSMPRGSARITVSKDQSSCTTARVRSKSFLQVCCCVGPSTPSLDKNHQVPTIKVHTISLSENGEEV
Type of experiment: functional, cell-based.

For experiment [14], the target named is Vascular endothelial growth factor receptor 2 (Homo sapiens, UniProt P35968). It is filed as functional.
Further: assay procedure not described here.

Sequence of 3',5'-cyclic-AMP phosphodiesterase 4D (Q08499 whole entry): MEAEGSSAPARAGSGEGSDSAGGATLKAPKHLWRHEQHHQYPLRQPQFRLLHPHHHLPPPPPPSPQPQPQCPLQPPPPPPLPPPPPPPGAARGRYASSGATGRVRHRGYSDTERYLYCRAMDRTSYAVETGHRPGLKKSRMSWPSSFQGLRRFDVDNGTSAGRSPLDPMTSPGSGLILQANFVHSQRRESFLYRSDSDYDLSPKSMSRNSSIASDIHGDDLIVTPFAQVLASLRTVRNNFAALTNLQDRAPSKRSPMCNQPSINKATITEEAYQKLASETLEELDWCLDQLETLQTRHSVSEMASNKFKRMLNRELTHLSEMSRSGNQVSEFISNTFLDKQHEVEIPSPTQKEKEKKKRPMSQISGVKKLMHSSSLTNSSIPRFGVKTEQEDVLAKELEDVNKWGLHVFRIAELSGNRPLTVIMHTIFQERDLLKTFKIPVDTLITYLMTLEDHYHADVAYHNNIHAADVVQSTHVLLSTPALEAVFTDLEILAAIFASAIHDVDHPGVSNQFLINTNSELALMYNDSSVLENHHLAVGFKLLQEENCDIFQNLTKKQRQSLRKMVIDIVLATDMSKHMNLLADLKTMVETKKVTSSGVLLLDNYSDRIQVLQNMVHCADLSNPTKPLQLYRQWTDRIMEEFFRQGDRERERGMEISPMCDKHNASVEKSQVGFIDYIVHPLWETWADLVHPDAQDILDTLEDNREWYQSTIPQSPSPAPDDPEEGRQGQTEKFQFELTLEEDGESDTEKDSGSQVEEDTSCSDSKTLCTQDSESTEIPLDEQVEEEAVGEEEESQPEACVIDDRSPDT
T1 sequence (P41595 whole entry): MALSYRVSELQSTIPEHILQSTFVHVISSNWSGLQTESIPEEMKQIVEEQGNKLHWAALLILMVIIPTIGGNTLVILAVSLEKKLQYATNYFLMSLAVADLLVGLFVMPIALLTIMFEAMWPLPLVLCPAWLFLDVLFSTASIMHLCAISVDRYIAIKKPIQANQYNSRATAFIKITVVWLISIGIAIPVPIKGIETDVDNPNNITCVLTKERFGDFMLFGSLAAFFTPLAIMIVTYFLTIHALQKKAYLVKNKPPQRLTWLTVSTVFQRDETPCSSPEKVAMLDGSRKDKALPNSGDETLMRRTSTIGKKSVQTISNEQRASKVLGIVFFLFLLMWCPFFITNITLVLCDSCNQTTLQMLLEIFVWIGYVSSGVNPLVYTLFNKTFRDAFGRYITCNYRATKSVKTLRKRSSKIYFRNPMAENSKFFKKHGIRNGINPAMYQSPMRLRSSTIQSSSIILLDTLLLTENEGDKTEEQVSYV
Sequence of Acetylcholinesterase (P22303 whole entry): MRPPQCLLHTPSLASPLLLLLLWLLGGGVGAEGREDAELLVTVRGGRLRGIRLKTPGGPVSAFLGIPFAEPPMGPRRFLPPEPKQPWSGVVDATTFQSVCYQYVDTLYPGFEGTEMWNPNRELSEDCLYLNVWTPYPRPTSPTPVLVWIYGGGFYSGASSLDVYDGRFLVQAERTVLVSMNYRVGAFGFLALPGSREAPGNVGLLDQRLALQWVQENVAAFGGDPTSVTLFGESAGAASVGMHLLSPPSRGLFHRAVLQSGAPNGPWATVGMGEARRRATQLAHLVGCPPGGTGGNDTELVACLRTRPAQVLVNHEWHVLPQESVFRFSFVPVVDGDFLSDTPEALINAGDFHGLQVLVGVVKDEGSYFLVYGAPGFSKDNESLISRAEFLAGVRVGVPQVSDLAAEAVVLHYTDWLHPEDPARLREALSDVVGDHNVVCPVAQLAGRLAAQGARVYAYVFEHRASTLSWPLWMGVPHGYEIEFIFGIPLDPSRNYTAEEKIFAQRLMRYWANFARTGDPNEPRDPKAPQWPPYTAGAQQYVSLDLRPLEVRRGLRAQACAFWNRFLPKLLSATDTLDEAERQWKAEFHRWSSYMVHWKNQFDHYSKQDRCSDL
Sequence of Sodium-dependent dopamine transporter (Q01959 whole entry): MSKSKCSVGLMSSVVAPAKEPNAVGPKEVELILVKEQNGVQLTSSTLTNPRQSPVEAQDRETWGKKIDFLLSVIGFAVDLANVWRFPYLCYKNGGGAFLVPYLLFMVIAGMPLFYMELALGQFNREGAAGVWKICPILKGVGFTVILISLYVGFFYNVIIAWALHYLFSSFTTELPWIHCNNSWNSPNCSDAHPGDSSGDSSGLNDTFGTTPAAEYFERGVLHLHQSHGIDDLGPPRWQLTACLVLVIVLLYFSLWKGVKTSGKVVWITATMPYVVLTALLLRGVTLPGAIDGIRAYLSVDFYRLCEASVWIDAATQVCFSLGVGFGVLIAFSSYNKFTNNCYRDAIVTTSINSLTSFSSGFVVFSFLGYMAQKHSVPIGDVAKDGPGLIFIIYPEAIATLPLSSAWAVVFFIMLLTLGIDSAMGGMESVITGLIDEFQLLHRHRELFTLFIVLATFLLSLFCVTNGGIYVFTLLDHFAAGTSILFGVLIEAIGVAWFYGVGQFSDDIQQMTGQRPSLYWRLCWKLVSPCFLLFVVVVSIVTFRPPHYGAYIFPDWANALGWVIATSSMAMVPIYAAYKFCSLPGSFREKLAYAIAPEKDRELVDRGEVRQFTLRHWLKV
Sequence of cGMP-inhibited 3',5'-cyclic phosphodiesterase 3A (Q14432 whole entry): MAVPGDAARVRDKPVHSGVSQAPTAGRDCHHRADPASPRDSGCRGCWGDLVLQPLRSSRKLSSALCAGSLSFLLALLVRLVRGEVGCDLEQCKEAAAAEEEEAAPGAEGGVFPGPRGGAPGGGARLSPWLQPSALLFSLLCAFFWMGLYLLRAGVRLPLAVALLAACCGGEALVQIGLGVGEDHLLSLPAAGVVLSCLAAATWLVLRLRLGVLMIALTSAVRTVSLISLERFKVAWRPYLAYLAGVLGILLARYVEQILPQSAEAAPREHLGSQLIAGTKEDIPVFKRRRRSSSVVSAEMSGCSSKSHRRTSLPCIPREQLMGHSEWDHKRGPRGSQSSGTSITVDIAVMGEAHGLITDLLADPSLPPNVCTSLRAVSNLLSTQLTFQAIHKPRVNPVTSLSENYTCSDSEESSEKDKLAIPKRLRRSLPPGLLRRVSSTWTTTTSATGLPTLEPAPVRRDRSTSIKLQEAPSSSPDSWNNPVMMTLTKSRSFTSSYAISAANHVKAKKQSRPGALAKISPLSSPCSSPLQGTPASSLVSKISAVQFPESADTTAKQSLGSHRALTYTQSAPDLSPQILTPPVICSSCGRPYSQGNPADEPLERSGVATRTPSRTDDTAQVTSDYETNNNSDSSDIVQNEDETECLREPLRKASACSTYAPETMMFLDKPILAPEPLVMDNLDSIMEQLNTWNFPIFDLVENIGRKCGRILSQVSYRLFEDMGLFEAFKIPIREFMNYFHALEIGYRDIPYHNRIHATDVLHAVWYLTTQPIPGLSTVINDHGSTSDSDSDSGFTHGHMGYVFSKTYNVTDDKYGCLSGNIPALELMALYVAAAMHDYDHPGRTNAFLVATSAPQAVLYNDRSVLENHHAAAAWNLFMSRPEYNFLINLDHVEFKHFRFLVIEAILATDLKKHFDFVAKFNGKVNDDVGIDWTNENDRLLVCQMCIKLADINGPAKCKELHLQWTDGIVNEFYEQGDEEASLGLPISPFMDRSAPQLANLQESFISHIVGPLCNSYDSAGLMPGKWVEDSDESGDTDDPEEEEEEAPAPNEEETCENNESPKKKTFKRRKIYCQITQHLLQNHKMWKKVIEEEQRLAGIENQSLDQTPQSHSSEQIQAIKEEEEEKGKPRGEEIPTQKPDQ
Sequence of Vascular endothelial growth factor receptor 2 (P35968 whole entry): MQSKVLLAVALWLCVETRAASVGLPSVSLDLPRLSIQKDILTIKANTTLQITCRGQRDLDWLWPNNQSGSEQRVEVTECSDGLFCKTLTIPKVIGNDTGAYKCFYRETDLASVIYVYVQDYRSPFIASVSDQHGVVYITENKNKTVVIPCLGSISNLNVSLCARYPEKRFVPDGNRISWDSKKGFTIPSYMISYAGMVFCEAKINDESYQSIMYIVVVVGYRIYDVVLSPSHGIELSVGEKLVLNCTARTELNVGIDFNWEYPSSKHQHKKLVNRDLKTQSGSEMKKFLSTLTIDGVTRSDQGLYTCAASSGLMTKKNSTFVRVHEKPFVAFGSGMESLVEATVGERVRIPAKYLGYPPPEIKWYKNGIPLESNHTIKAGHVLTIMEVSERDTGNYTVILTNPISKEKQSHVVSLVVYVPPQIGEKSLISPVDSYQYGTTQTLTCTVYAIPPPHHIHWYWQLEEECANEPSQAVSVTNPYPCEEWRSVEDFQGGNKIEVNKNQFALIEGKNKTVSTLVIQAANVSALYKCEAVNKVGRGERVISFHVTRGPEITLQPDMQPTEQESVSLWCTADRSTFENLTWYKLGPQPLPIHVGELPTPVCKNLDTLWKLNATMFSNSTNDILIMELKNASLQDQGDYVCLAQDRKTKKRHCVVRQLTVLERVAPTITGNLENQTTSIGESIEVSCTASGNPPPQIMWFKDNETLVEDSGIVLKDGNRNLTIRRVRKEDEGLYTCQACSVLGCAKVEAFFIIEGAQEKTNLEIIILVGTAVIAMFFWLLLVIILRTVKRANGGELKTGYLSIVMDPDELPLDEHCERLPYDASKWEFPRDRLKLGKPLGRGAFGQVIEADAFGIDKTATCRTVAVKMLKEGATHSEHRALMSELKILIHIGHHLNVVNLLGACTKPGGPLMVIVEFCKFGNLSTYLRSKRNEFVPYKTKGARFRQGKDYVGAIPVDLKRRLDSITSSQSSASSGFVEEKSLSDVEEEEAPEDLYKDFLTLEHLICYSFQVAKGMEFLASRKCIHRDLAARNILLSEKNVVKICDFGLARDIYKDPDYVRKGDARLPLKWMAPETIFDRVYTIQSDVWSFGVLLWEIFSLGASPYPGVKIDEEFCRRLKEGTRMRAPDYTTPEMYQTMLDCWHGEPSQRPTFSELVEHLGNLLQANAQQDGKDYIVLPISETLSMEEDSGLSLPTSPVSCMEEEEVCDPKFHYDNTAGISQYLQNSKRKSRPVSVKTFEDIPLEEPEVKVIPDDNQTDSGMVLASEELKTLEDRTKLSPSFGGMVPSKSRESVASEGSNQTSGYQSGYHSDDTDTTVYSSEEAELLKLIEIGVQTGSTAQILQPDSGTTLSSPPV

With `O=C(Cn1ccnc1[N+](=O)[O-])NCc1ccccc1` [BENZNIDAZOLE], the AC50 in experiment [1], in experiment [2], in experiment [3], in experiment [4], in experiment [5] and in [6] was over 30 µM in each case. The concentration at half-maximal activity (AC50) in [7], in experiment [8], in experiment [9], in [10], in experiment [11] and in experiment [12] was over 30 µM each time.

As to `Cn1cc[nH]c1=S` [METHIMAZOLE], the AC50 in experiment [1], in experiment [13], in experiment [4], in [6], in [7] and in [8] was over 30 µM in each case. Moreover, in experiment [12], the AC50 was over 30 µM.

With `NS(=O)(=O)c1cc2c(cc1Cl)NC(CC1CCCC1)NS2(=O)=O` (stereo unspecified) [CYCLOPENTHIAZIDE], the AC50 in [1], in experiment [2], in experiment [4], in experiment [6], in [7] and in experiment [8] was over 30 µM each time. For the same compound, the AC50 in [9], in experiment [10], in experiment [11] and in experiment [12] was over 30 µM each time.

For the compound `COCC1=C(C(=O)OC(C)OC(=O)OC(C)C)N2C(=O)[C@@H](NC(=O)/C(=N\OC)c3csc(N)n3)[C@H]2SC1` (stereo partly specified) [CEFPODOXIME PROXETIL], the AC50 in experiment [1], in [2], in experiment [4], in experiment [6], in experiment [7] and in [8] was over 30 µM each time. The AC50 is over 30 µM in [9], 29 µM in experiment [10], over 30 µM in experiment [11] and over 30 µM in experiment [12].

As for `CC(C)=CCC1C(=O)N(c2ccccc2)N(c2ccccc2)C1=O` [FEPRAZONE], the AC50 in [1], in experiment [4], in experiment [6], in experiment [7], in experiment [8] and in experiment [12] was over 30 µM throughout.

On to `CO[C@@]12[C@H](COC(N)=O)C3=C(C(=O)C(C)=C(N)C3=O)N1C[C@@H]1N[C@@H]12` [MITOMYCIN], for which the concentration at half-maximal activity (AC50) in experiment [1], in experiment [13], in experiment [4], in experiment [6], in experiment [7] and in experiment [8] was over 30 µM in each case. Further, the AC50 in experiment [12] was over 30 µM.

Consider `Oc1cccc2cccnc12` [OXYQUINOLINE], for which the AC50 was over 30 µM in experiment [1]; 20.8 µM in experiment [13]; over 30 µM in [14]; over 30 µM in [4]; over 30 µM in [6]; over 30 µM in experiment [8]. The same compound gave an AC50 in [12] of over 30 µM.

For the compound `NCc1ccccc1CC(=O)N[C@@H]1C(=O)N2C(C(=O)O)=C(CSc3nnnn3CC(=O)O)CS[C@H]12` [CEFORANIDE], the AC50 in experiment [1], in [13], in [4], in experiment [6], in [7] and in [8] was over 30 µM each time. In addition, in experiment [12], the AC50 is over 30 µM.

With `CCCC1C(=O)N2C(N(C)C)=Nc3ccc(C)cc3N2C1=O` (stereo unspecified) [APAZONE], the AC50 in [1], in experiment [13], in experiment [14], in experiment [4], in experiment [6] and in experiment [8] was over 30 µM in each case. In addition, the concentration at half-maximal activity (AC50) in experiment [12] was over 30 µM.

For the compound `CC[C@@H]1/C=C(\C)C[C@H](C)C[C@H](OC)[C@H]2O[C@@](O)(C(=O)C(=O)N3CCCC[C@H]3C(=O)O[C@H](/C(C)=C/[C@@H]3CC[C@H](Cl)[C@H](OC)C3)[C@H](C)[C@@H](O)CC1=O)[C@H](C)C[C@@H]2OC` [PIMECROLIMUS], the concentration at half-maximal activity (AC50) in experiment [1], in experiment [13], in experiment [14], in experiment [4], in experiment [6] and in [8] was over 30 µM throughout. For the same compound, the AC50 in [12] was over 30 µM.

Turning to `CO/N=C(\C(=O)N[C@@H]1C(=O)N2C(C(=O)OCOC(=O)C(C)(C)C)=C(C)CS[C@H]12)c1csc(N)n1`, the AC50 in experiment [1], in experiment [2], in [4], in experiment [6], in [7] and in [8] was over 30 µM in each case. Further, the AC50 in [9], in experiment [10], in [11] and in experiment [12] was over 30 µM throughout.

`O=C(Nc1ccccc1)OCC(CN1CCCCC1)OC(=O)Nc1ccccc1` (stereo unspecified) [DIPERODON]: the AC50 is over 30 µM in [1]; over 30 µM in experiment [13]; over 10 µM in [2]; over 30 µM in [14]; over 30 µM in [3]; over 30 µM in [4]. The AC50 in experiment [5] is over 30 µM; in [6], over 30 µM; in [8], 11.2 µM; in experiment [9], over 10 µM; in [10], over 10 µM; in experiment [11], over 10 µM. This compound also came in with a concentration at half-maximal activity (AC50) in experiment [12] of over 30 µM.

`Oc1c(I)cc(I)c2cccnc12` [IODOQUINOL]: the concentration at half-maximal activity (AC50) in [1] is over 30 µM; in experiment [13] it was over 30 µM; in experiment [14], over 30 µM; in experiment [4] it was over 10 µM; in experiment [6] it was over 30 µM; in experiment [8], 8.91 µM. For the same compound, the AC50 in experiment [12] is over 30 µM.

With `COc1cc(NCc2ccc3nc(N)nc(N)c3c2C)cc(OC)c1OC` [TRIMETREXATE], the AC50 was 9.54 µM in experiment [1]; over 30 µM in [13]; 8.06 µM in [4]; 1.62 µM in experiment [6]; over 30 µM in experiment [7]; 1.2 µM in experiment [8]. The compound further had an AC50 in experiment [12] of over 30 µM.

For the compound `CC/C=C\C/C=C\C/C=C\C/C=C\C/C=C\CCCC(=O)O` [ICOSAPENT], the AC50 in experiment [1], in experiment [13], in experiment [14], in [4], in [6] and in [8] was over 30 µM in each case. In experiment [12], this compound showed an AC50 of over 30 µM.

With `Nc1ccc(/N=N/c2ccccc2)c(N)n1` [PHENAZOPYRIDINE], the concentration at half-maximal activity (AC50) in experiment [1] was 4.71 µM; in [2], over 30 µM; in experiment [4], over 30 µM; in experiment [6], over 3 µM; in experiment [7], over 30 µM; in experiment [8], over 30 µM. Besides, the concentration at half-maximal activity (AC50) in [9] was over 30 µM; in experiment [10], 14 µM; in [11], 22 µM; in [12], over 30 µM.

Regarding `Nc1nc2c(ncn2CCC(CO)CO)c(=O)[nH]1` [PENCICLOVIR], the AC50 in experiment [1], in experiment [13], in experiment [14], in experiment [4], in experiment [6] and in [8] was over 30 µM throughout. In experiment [12], the concentration at half-maximal activity (AC50) was over 30 µM.

The values are drawn from ChEMBL document CHEMBL5291721, “A preclinical secondary pharmacology resource illuminates target-adverse drug reaction associations of marketed drugs” (Nat Commun, 2023).
